Experimental data published in PubChem BioAssay AID328 (DTP/NCI, 2004).
Inconclusive results and toxic doses are left out.

Test system: BDF1 mice, P388 leukemia ip, median survival T/C
Assay: NCI In Vivo Anticancer Drug Screen. Data for tumor model P388 Leukemia (intraperitoneal) in B6D2F1 (BDF1) mice
Settings: endpoint: median survival time, higher = longer survival
Method in brief: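 Steps: implant the tumour, treat one group with compound and another with vehicle, record survival, then divide treated by control.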

[1] = dose: 50.0 mg/kg/injection, schedule: Q01DX009 (ip), vehicle: saline with Tween-80
[2] = dose: 100.0 mg/kg/injection, schedule: Q01DX009 (ip), vehicle: saline with Tween-80
[3] = dose: 200.0 mg/kg/injection, schedule: Q01DX009 (ip), vehicle: saline with Tween-80
[4] = dose: 100.0 mg/kg/injection, schedule: Q04DX002 (ip), vehicle: Klucel (hydroxypropylcellulose) (HPC)
[5] = dose: 200.0 mg/kg/injection, schedule: Q04DX002 (ip), vehicle: Klucel (hydroxypropylcellulose) (HPC)
[6] = dose: 100.0 mg/kg/injection, schedule: Q04DX003 (ip), vehicle: Klucel (hydroxypropylcellulose) (HPC)
[7] = dose: 200.0 mg/kg/injection, schedule: Q04DX003 (ip), vehicle: Klucel (hydroxypropylcellulose) (HPC)
[8] = dose: 400.0 mg/kg/injection, schedule: Q04DX003 (ip), vehicle: Klucel (hydroxypropylcellulose) (HPC)
[9] = dose: 50.0 mg/kg/injection, schedule: Q01DX009 (ip), vehicle: Klucel (hydroxypropylcellulose) (HPC)

`C=C1C=C(C)CC(C)(C)C1` (tested in a mixture with another compound) was tested, and the T/C (dose: 100.0 mg/kg/injection, schedule: Q01DX009 (ip), vehicle: saline sonified) was 100 % of control, the T/C (dose: 200.0 mg/kg/injection, schedule: Q01DX009 (ip), vehicle: saline sonified) was 100 % of control and the T/C (dose: 400.0 mg/kg/injection, schedule: Q01DX009 (ip), vehicle: saline sonified) was 100 % of control.

For `Cc1[o+]c(C)c2c(c1C)-c1ccccc1C2=O`, the T/C (dose: 6.25 mg/kg/injection, schedule: Q01DX009 (ip), vehicle: saline with Tween-80) was 104 % of control, the T/C (dose: 12.5 mg/kg/injection, schedule: Q01DX009 (ip), vehicle: saline with Tween-80) was 113 % of control and the T/C (dose: 25.0 mg/kg/injection, schedule: Q01DX009 (ip), vehicle: saline with Tween-80) was 98 % of control. For the same molecule, the T/C (dose: 25.0 mg/kg/injection, schedule: Q04DX003 (ip), vehicle: saline with Tween-80) was 109 % of control, the T/C [1] was 106 % of control and the T/C [2] was 120 % of control. For the same molecule, the T/C (dose: 100.0 mg/kg/injection, schedule: Q04DX003 (ip), vehicle: saline with Tween-80) was 100 % of control, the T/C [3] was 104 % of control and the T/C (dose: 200.0 mg/kg/injection, schedule: Q04DX003 (ip), vehicle: saline with Tween-80) was 116 % of control.

For `O=[N+]([O-])c1cccc(N/N=C\c2c(Cl)n(-c3ccccc3)c3ccccc23)c1`, the T/C [4] was 97 % of control, the T/C [5] was 93 % of control and the T/C (dose: 400.0 mg/kg/injection, schedule: Q04DX002 (ip), vehicle: Klucel (hydroxypropylcellulose) (HPC)) was 99 % of control.

`CN(C)c1ccc(C=Nc2ccc(/C=C\c3ccnc4ccccc34)cc2)cc1` was tested, and the T/C [1] was 107 % of control, the T/C [2] was 117 % of control and the T/C [3] was 100 % of control.

With `CCOc1ccc(OCC)c2c1C(=O)c1ccccc1C2=O` the T/C [6] was 100 % of control, the T/C [7] was 105 % of control and the T/C [8] was 111 % of control.

With `CC1(C)NC(=O)N(CN2CCN(CN3C(=O)NC(C)(C)C3=O)CC2)C1=O` the T/C (dose: 100.0 mg/kg/injection, schedule: Q04DX003 (ip), vehicle: saline sonified) was 107 % of control, the T/C (dose: 200.0 mg/kg/injection, schedule: Q04DX003 (ip), vehicle: saline sonified) was 115 % of control and the T/C (dose: 400.0 mg/kg/injection, schedule: Q04DX003 (ip), vehicle: saline sonified) was 115 % of control.

In the case of `CN(N=O)C(=O)NC(C=O)C(O)C(O)C(O)CO` (stereo not given), the T/C (dose: 25.0 mg/kg/injection, schedule: Q01DX010 (ip), vehicle: saline) is reported as 113 % of control.

In the case of `OCC(O)CCBr` (stereo not given), the T/C (dose: 264.0 mg/kg/injection, schedule: Q01DX009 (ip), vehicle: saline with Tween-80) is reported as 150 % of control, the T/C (dose: 400.0 mg/kg/injection, schedule: Q01DX009 (ip), vehicle: saline with Tween-80) is reported as 170 % of control and the T/C (dose: 600.0 mg/kg/injection, schedule: Q01DX009 (ip), vehicle: saline with Tween-80) is reported as 208 % of control.

`O=C(NNC(=O)c1ccc([N+](=O)[O-])cc1)c1ccccc1` was tested, and the T/C (dose: 3.0 mg/kg/injection, schedule: Q01DX009 (ip), vehicle: Klucel (hydroxypropylcellulose) (HPC)) was 95 % of control, the T/C (dose: 6.0 mg/kg/injection, schedule: Q01DX009 (ip), vehicle: Klucel (hydroxypropylcellulose) (HPC)) was 104 % of control and the T/C (dose: 12.0 mg/kg/injection, schedule: Q01DX009 (ip), vehicle: Klucel (hydroxypropylcellulose) (HPC)) was 100 % of control. For the same molecule, the T/C [9] was 92 % of control, the T/C [6] was 104 % of control and the T/C [7] was 87 % of control. The T/C [8] was 108 % of control.

For `O=C(/C(=C\c1ccccc1)CN1CCOCC1)c1ccc(Br)cc1`, the T/C (dose: 25.0 mg/kg/injection, schedule: Q01DX009 (ip), vehicle: Klucel (hydroxypropylcellulose) (HPC)) was 104 % of control, the T/C (dose: 37.5 mg/kg/injection, schedule: Q04DX003 (ip), vehicle: Klucel (hydroxypropylcellulose) (HPC)) was 108 % of control and the T/C [9] was 108 % of control. The T/C (dose: 75.0 mg/kg/injection, schedule: Q04DX003 (ip), vehicle: Klucel (hydroxypropylcellulose) (HPC)) was 104 % of control and the T/C (dose: 150.0 mg/kg/injection, schedule: Q04DX003 (ip), vehicle: Klucel (hydroxypropylcellulose) (HPC)) was 108 % of control.

In the case of `CCCC(C)(C)c1cc(C(C)C)cc(C(C)(C)CCC)c1O`, the T/C (dose: 12.5 mg/kg/injection, schedule: Q01DX009 (ip), vehicle: other) is reported as 112 % of control, the T/C (dose: 25.0 mg/kg/injection, schedule: Q01DX009 (ip), vehicle: other) is reported as 118 % of control and the T/C (dose: 50.0 mg/kg/injection, schedule: Q01DX009 (ip), vehicle: other) is reported as 97 % of control.

In the case of `CC(C)Cn1c(Cl)c(/C=N\Nc2ccccc2[N+](=O)[O-])c2ccccc21`, the T/C [4] is reported as 92 % of control and the T/C [5] is reported as 99 % of control.
